These results are taken from patent publication US11884661B2, “3-substituted propionic acids as αV integrin inhibitors” (BRISTOL-MYERS SQUIBB COMPANY, priority 2016, dated 2024).

One assay deals with T1, human αVβ6 (Homo sapiens, UniProt P06756+P18564).
T1 construct: purchased R & D systems 3817-AV
The experiment in a line: human αVβ6 HTRF binding assay. The following applies: recombinant human αVβ6 integrin, FITC-conjugated fibronectin. The essentials: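 Biotinylated recombinant αVβ6 (1.25 nM final) incubated with FITC-fibronectin (5 nM) 1 h at RT, then streptavidin-terbium (0.625 nM) added and incubated overnight at RT in the dark before HTRF read. Buffer: 20 mM Tris pH 7.4, 1 mM MgCl2, 1 mM MnCl2, 0.01% Tween 20, 0.01% BSA.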

Another assay deals with human αVβ1 (Homo sapiens, UniProt P05556+P06756). The experiment in a line: human αVβ1 HTRF binding assay. The procedure: (§1) All binding assays used the HTRF (homogeneous time resolved fluorescence) technology from Cisbio International, therefore all assays are described as HTRF binding assays. The assay results for the Examples are listed above together with the characterization data. The HTRF binding assays are established for the following integrins: human αVβ6, human αVβ1, human αVβ3, human αVβ5, and human αVβ8. All assays used the following assay buffer: 20 mM Tris, pH 7.4, 1 mM MgCl2, 1 mM MnCl2, 0.01% Tween 20, and 0.01% BSA. Alternatively, a SPA-based assay was used for evaluation of receptor binding.
(§2) The following describes the components and a representative procedure for the human αVβ6 HTRF binding assay: Recombinant human αVβ6 Integrin (R & D systems, 3817-AV) was biotinylated. Biotinylated human αVβ6 Integrin was added to assay vessel at a final concentration of 1.25 nM. FITC-conjugated fibronectin (Cytoskeleton, FNR02) was then added at the final concentration of 5 nM. The mixture was centrifuged at 600 rpm for three minutes using Thermo Fisher Heraeus Multifuge X3 centrifuge and then incubated at RT for an hour. Streptavidin Terbium (Cisbio international 610STLB) was then added at the final concentration of 0.625 nM. The resulting mixture was centrifuged at 600 rpm for three minutes using Thermo Fisher Heraeus Multifuge X3 centrifuge and then incubated at room temperature overnight in dark before reading HTRF signals.

The target in another assay is human αVβ3 (Homo sapiens, UniProt P05106+P06756). In words: human αVβ3 HTRF binding assay. Here is the method: as §1, §2
The next assay addresses human αVβ8 (Homo sapiens, UniProt P06756+P26012). The experiment in a line: human αVβ8 HTRF binding assay. Here is the method: (§3) All binding assays used the HTRF (homogeneous time resolved fluorescence) technology from Cisbio International, therefore all assays are described as HTRF binding assays. The assay results for the Examples are listed above together with the characterization data. The HTRF binding assays are established for the following integrins: human αVβ6, human αVβ1, human αVβ3, human αVβ5, and human αVβ8. All assays used the following assay buffer: 20 mM Tris, pH 7.4, 1 mM MgCl2, 1 mM MnCl2, 0.01% Tween 20, and 0.01% BSA. Alternatively, a SPA-based assay was used for evaluation of receptor binding. […]

Another assay has as its target human αVβ5 (Homo sapiens, UniProt P06756+P18084). In words: human αVβ5 HTRF binding assay. Here is the method: as §3

human αVβ8, sequence (P06756 31-992 limits assumed): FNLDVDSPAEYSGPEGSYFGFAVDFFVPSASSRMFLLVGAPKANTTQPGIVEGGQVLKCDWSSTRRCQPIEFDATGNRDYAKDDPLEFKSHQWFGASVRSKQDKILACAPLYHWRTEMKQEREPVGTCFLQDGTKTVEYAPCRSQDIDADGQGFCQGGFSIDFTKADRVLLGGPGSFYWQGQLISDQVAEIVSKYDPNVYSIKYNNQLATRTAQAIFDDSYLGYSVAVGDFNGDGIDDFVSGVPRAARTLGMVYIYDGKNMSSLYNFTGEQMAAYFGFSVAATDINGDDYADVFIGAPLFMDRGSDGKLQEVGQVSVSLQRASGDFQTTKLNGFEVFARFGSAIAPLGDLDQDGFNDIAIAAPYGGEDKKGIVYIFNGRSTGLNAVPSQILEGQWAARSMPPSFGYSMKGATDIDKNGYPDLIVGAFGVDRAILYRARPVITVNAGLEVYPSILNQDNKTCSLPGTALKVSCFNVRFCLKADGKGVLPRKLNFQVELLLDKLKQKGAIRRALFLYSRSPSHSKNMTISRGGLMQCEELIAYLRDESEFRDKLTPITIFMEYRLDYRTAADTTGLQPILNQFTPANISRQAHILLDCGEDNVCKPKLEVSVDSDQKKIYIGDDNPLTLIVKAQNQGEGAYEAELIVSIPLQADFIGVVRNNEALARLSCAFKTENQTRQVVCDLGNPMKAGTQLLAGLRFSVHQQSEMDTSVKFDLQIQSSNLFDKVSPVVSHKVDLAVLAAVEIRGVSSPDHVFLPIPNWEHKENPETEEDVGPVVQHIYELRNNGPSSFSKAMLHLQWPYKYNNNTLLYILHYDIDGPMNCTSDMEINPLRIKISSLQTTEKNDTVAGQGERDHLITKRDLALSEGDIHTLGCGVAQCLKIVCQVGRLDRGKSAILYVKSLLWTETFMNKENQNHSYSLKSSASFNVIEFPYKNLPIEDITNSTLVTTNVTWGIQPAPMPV
human αVβ8, sequence (P26012 43-684 limits assumed): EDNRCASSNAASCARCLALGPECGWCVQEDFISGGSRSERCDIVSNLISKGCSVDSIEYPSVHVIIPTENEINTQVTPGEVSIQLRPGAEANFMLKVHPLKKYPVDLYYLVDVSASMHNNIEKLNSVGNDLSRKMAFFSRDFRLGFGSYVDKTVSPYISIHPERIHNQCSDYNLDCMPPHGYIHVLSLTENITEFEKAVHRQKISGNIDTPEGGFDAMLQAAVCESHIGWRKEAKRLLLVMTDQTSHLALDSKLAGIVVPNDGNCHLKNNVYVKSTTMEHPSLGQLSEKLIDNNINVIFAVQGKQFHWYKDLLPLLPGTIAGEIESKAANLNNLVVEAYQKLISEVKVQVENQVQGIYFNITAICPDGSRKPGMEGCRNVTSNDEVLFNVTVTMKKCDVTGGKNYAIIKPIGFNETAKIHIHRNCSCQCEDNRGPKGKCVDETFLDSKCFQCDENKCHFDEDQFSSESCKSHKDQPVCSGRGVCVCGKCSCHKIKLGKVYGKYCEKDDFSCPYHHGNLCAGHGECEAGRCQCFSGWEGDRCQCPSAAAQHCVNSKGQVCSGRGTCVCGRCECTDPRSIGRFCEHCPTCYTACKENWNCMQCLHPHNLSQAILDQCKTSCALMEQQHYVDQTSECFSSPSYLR
T1 sequence (P06756 31-992 limits assumed): as the sequence (P06756 31-992 limits assumed) above
T1 sequence (P18564 22-707 limits assumed): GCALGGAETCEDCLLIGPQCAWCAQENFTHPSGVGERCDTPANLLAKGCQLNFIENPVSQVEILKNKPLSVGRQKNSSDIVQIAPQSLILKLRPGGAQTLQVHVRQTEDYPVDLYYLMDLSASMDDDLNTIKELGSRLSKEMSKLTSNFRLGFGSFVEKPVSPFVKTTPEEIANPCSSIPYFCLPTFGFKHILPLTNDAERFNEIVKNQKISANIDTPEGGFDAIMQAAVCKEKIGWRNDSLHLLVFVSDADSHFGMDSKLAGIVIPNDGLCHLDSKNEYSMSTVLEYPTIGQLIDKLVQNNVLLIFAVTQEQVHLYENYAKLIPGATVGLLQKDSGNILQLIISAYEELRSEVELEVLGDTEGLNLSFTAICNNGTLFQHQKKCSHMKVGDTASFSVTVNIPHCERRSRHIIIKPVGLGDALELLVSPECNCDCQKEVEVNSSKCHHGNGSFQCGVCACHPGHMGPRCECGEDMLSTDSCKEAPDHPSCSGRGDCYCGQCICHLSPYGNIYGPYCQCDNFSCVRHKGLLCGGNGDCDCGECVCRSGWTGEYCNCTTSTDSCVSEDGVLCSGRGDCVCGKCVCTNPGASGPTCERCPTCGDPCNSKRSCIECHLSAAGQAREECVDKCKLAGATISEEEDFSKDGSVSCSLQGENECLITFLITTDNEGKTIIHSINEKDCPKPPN
human αVβ5, sequence (P06756 31-992 limits assumed): as the sequence (P06756 31-992 limits assumed) above
human αVβ5, sequence (P18084 24-719 limits assumed): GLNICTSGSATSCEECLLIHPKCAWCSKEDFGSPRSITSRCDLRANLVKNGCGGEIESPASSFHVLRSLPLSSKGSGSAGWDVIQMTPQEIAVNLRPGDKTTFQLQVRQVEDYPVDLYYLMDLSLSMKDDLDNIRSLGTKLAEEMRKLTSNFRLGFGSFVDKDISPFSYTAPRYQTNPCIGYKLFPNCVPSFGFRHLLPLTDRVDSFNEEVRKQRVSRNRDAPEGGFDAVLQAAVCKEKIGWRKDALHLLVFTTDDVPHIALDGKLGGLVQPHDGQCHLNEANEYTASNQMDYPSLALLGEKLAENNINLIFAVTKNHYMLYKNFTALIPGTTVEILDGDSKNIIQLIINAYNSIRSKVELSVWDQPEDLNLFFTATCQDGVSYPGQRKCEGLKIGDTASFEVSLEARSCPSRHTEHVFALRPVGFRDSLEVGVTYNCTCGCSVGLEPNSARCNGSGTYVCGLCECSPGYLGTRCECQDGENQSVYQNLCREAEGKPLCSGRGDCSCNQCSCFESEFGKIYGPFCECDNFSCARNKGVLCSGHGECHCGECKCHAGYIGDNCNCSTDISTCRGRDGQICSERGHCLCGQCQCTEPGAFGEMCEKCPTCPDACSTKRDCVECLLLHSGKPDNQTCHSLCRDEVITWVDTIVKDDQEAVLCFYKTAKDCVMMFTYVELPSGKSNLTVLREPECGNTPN
human αVβ3, sequence (P06756 31-992 limits assumed): as the sequence (P06756 31-992 limits assumed) above
human αVβ3, sequence (P05106 27-718 limits assumed): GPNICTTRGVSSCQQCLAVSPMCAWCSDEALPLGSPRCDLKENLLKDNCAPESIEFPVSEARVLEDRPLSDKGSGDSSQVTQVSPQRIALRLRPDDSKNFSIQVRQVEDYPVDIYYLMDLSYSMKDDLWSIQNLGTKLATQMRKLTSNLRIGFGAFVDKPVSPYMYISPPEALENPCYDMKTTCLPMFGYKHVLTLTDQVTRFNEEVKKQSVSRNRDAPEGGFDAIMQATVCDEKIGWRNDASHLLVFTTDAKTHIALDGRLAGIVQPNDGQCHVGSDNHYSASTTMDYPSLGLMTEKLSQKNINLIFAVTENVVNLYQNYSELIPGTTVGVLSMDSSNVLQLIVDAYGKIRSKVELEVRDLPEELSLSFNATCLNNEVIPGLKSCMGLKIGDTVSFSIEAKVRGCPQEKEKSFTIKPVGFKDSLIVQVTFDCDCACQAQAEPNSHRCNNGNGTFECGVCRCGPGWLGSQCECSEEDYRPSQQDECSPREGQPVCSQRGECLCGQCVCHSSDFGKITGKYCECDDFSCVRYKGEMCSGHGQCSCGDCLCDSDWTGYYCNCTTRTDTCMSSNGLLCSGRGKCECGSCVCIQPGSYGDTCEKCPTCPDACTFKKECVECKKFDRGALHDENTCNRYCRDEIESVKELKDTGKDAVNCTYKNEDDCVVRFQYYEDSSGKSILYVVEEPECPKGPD
human αVβ1, sequence (P06756 31-992 limits assumed): as the sequence (P06756 31-992 limits assumed) above
human αVβ1, sequence (P05556 21-728 limits assumed): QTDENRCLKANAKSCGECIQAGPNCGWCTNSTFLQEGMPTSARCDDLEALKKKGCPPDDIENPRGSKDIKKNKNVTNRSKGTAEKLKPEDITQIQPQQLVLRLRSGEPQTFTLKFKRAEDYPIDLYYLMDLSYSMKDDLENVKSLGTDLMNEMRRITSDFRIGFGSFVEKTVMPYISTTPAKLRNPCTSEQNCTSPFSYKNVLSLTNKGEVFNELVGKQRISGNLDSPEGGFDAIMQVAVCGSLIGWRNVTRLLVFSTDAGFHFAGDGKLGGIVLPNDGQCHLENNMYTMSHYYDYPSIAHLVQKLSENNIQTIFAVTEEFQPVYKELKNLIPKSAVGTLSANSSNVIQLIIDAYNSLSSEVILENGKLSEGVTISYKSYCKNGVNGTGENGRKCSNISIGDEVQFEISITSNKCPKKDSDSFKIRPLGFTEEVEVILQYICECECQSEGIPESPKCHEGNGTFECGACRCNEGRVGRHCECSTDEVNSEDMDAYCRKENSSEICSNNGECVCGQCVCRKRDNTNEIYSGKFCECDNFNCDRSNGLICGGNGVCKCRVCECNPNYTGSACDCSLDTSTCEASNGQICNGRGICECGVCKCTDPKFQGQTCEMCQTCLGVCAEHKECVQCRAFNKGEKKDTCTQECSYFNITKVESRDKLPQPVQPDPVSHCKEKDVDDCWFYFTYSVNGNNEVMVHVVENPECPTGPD

For the compound `O=C(O)CC(c1cccc(N2CCOCC2)c1)n1ccc(CCCc2ccc3c(n2)NCCC3)n1` (racemic) [Example 32, (±)-3-(3-Morpholinophenyl)-3-(3-(3-(5,6,7,8-tetrahydro-1,8-naphthyridin-2-yl)propyl)-1H-pyrazol-1-yl)propanoic acid], the IC50 at human αVβ6 worked out at 0.0043 µM; at human αVβ1, 0.043 µM; at human αVβ3, 0.0055 µM; at human αVβ8, 2.7 µM.

`COc1ccc(C(CC(=O)O)c2nc(CCCCc3ccc4c(n3)NCCC4)cs2)cc1F` (single isomer, unassigned) [Example 37, 3-(3-Fluoro-4-methoxyphenyl)-3-(4-(4-(5,6,7,8-tetrahydro-1,8-naphthyridin-2-yl)butyl)thiazol-2-yl)propanoic acid]: the IC50 was 0.002 µM on human αVβ6; 0.16 µM at human αVβ1; 0.0017 µM at human αVβ3; 0.0011 µM on human αVβ5; 0.87 µM on human αVβ8.

In the case of `COc1ccc(C(CC(=O)O)c2nc(CCCCc3ccc4c(n3)NCCC4)cs2)cn1` (single isomer, unassigned) [Example 14, 3-(6-Methoxypyridin-3-yl)-3-(4-(4-(5,6,7,8-tetrahydro-1,8-naphthyridin-2-yl)butyl)thiazol-2-yl)propanoic acid], the IC50 was 0.0021 µM on human αVβ6; 0.241 µM on human αVβ1; 0.0019 µM on human αVβ3; 0.011 µM on human αVβ5; 0.51 µM at human αVβ8.

Regarding `Cc1cc(C)n(-c2cccc(C(CC(=O)O)n3ccc(CCCc4ccc5c(n4)NCCC5)n3)c2)n1` (racemic) [Example 31, (±)-3-(3-(3,5-Dimethyl-1H-pyrazol-1-yl)phenyl)-3-(3-(3-(5,6,7,8-tetrahydro-1,8-naphthyridin-2-yl)propyl)-1H-pyrazol-1-yl)propanoic acid], the IC50 is 0.0052 µM on human αVβ6, 0.063 µM on human αVβ1, 0.0075 µM on human αVβ3 and 3.3 µM on human αVβ8.

For the compound `CCOC(=O)C[C@@H](c1ccc(OC)nc1)n1ccc(CCCc2ccc3c(n2)NCCC3)n1` [Example 47, Ethyl (S)-3-(6-methoxypyridin-3-yl)-3-(3-(3-(5,6,7,8-tetrahydro-1,8-naphthyridin-2-yl)propyl)-1H-pyrazol-1-yl)propanoate], the half-inhibitory concentration (IC50) on human αVβ6 turned out to be 0.011 µM; at human αVβ3, 1.12 µM; on human αVβ5, 0.27 µM.

As for `COc1ccc([C@H](CC(=O)O)N2CCC(CCCc3ccc4c(n3)NCCC4)C2)cn1` (stereo partly drawn) [Example 21, (3S)-3-(6-Methoxypyridin-3-yl)-3-(3-(3-(5,6,7,8-tetrahydro-1,8-naphthyridin-2-yl)propyl)pyrrolidin-1-yl)propanoic acid], the IC50 at human αVβ6 is 0.0014 µM; at human αVβ1 it was 6.5 µM; on human αVβ3 it was 0.0044 µM; at human αVβ5 it was 0.01 µM; on human αVβ8, 0.18 µM.

For `COc1ccc(C(CC(=O)O)c2nc(CCCc3ccc4c(n3)NCCC4)cs2)cc1F` (single isomer, unassigned) [Example 38, 3-(3-Fluoro-4-methoxyphenyl)-3-(4-(3-(5,6,7,8-tetrahydro-1,8-naphthyridin-2-yl)propyl)thiazol-2-yl)propanoic acid], the IC50 at human αVβ6 is 0.0021 µM; on human αVβ1, 0.066 µM; on human αVβ3, 0.0023 µM; at human αVβ8 it was 0.86 µM.

In the case of `COc1ccc(C(CC(=O)O)n2ccc(OCCCc3ccc4c(n3)NCCC4)n2)cn1` (racemic) [Example 48, (±)-3-(6-Methoxypyridin-3-yl)-3-(3-(3-(5,6,7,8-tetrahydro-1,8-naphthyridin-2-yl)propoxy)-1H-pyrazol-1-yl)propanoic acid], the figures for the IC50 at human αVβ6, at human αVβ3 and on human αVβ5 were 0.029 µM, 0.0075 µM and 0.0027 µM, respectively.

On to `CCOc1ncc(C(CC(=O)O)n2ccc(CCCc3ccc4c(n3)NCCC4)n2)cn1` (racemic) [Example 27, (±)-3-(2-Ethoxypyrimidin-5-yl)-3-(3-(3-(5,6,7,8-tetrahydro-1,8-naphthyridin-2-yl)propyl)-1H-pyrazol-1-yl)propanoic acid], for which the IC50 was determined as 0.0094 µM on human αVβ6; 0.144 µM on human αVβ1; 0.0023 µM at human αVβ3; 0.00076 µM on human αVβ5; 1.8 µM at human αVβ8.

`COc1cncc(C(CC(=O)O)n2ccc(CCCc3ccc4c(n3)NCCC4)n2)c1` (single isomer, unassigned) [Example 65, 3-(5-methoxypyridin-3-yl)-3-(3-(3-(5,6,7,8-tetrahydro-1,8-naphthyridin-2-yl)propyl)-1H-pyrazol-1-yl)propanoic acid]: the IC50 on human αVβ6 was 0.41 µM; on human αVβ3 it was 0.0043 µM; at human αVβ5, 0.0011 µM.

As for `COc1ccc(C(CC(=O)O)n2ccc(CCCc3ccc4c(n3)NCCC4)n2)cn1` (single isomer, unassigned) [Example 3, 3-(6-Methoxypyridin-3-yl)-3-(3-(3-(5,6,7,8-tetrahydro-1,8-naphthyridin-2-yl)propyl)-1H-pyrazol-1-yl)propanoic acid], the IC50 at human αVβ6 is 0.0032 µM; at human αVβ1, 0.065 µM; on human αVβ3 it was 0.0032 µM; at human αVβ5, 0.011 µM; on human αVβ8 it was 1.12 µM.

As to `Cc1ncc([C@H](CC(=O)O)n2ccc(CCCc3ccc4c(n3)NCCC4)n2)cn1` [Example 54, (S)-3-(2-Methylpyrimidin-5-yl)-3-(3-(3-(5,6,7,8-tetrahydro-1,8-naphthyridin-2-yl)propyl)-1H-pyrazol-1-yl)propanoic acid], the IC50 on human αVβ6 turned out to be 0.018 µM; at human αVβ3, 0.0073 µM; at human αVβ5 it was 0.00099 µM.

As for `COc1cncc(C(CC(=O)O)n2nccc2CCCc2ccc3c(n2)NCCC3)c1` (single isomer, unassigned) [Example 63, 3-(5-methoxypyridin-3-yl)-3-(5-(3-(5,6,7,8-tetrahydro-1,8-naphthyridin-2-yl)propyl)-1H-pyrazol-1-yl)propanoic acid], the IC50 at human αVβ6 turned out to be 0.013 µM; on human αVβ3, 0.008 µM; at human αVβ5, 0.00087 µM; on human αVβ8, 0.77 µM.

Regarding `COc1ccc(C(CC(=O)O)c2ncc(CCCCc3ccc4c(n3)NCCC4)s2)cc1F` (single isomer, unassigned) [Example 40], the IC50 at human αVβ6 came to 0.017 µM; on human αVβ3, 0.028 µM; at human αVβ5, 0.01 µM; on human αVβ8 it was 2.6 µM.

Consider `COc1ccc(C(CC(=O)O)n2ccc(CCCCc3ccc4c(n3)NCCC4)n2)cn1` (racemic) [Example 1, (±)-3-(6-Methoxypyridin-3-yl)-3-(3-(4-(5,6,7,8-tetrahydro-1,8-naphthyridin-2-yl)butyl)-1H-pyrazol-1-yl)propanoic acid], for which the IC50 worked out at 0.006 µM on human αVβ6, 0.0024 µM at human αVβ3, 0.0015 µM on human αVβ5 and 0.262 µM on human αVβ8.

Turning to `COc1ccc(C(CC(=O)O)n2ccc(CCCc3ccc4c(n3)NCCC4)n2)cn1` (racemic) [Example 2, (±)-3-(6-Methoxypyridin-3-yl)-3-(3-(3-(5,6,7,8-tetrahydro-1,8-naphthyridin-2-yl)propyl)-1H-pyrazol-1-yl)propanoic acid], the half-inhibitory concentration (IC50) came out at 0.0068 µM at human αVβ6, 0.0027 µM at human αVβ3, 0.00034 µM on human αVβ5 and 0.42 µM at human αVβ8.

In the case of `COc1ccc(C(CC(=O)O)c2nc(CCCc3ccc4c(n3)NCCC4)cs2)cn1` (single isomer, unassigned) [Example 15, 3-(6-Methoxypyridin-3-yl)-3-(4-(3-(5,6,7,8-tetrahydro-1,8-naphthyridin-2-yl)propyl)thiazol-2-yl)propanoic acid], the IC50 was 0.0007 µM at human αVβ6, 0.055 µM on human αVβ1, 0.0014 µM at human αVβ3 and 0.33 µM on human αVβ8.

With `COc1ccc(C(CC(=O)O)n2ccc(-c3cccc(-c4ccc5c(n4)NCCC5)c3)n2)cn1` (racemic) [Example 46, (±)-3-(6-Methoxypyridin-3-yl)-3-(3-(3-(5,6,7,8-tetrahydro-1,8-naphthyridin-2-yl)phenyl)-1H-pyrazol-1-yl)propanoic acid], the half-inhibitory concentration (IC50) at human αVβ6 is 0.028 µM; at human αVβ3, 0.014 µM; on human αVβ5, 0.011 µM; at human αVβ8 it was 8.2 µM.
